Columns and labels:
human liver FBPase = target: T1, human liver FBPase (Homo sapiens, UniProt P09467); assay: Inhibition of human liver FBPase; format: biochemical; conditions: for IC50: values in text, read-out: hlFBPase IC50
T1 construct: made in house; host or cells: E. coli BL21
T1 sequence (P09467 2-338 limits assumed): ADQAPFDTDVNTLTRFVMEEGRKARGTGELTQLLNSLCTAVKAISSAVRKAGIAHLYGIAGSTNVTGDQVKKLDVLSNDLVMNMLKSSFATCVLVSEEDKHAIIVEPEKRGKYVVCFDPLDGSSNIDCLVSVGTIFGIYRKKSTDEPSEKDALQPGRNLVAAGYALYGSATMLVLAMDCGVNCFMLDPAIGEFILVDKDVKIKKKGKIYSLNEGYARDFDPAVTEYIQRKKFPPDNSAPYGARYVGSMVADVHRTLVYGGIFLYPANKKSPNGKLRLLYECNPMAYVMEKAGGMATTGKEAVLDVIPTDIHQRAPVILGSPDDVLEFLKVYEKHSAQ
Description: Enzymatic activity was measured spectrophotometrically in reactions that coupled the formation of product (fructose 6-phosphate) to the reduction of dimethylthiazoldiphenyltetrazolium bromide (MTT) via NADP and phenazine methosulfate (PMS), using phosphoglucose isomerase and glucose 6-phosphate dehydrogenase as the coupling enzymes. Reaction mixtures (200 μl) were made up in 96-well microtitre plates, and consisted of 50 mM Tris-HCl, pH 7.4, 100 mM KCl, 5 mM EGTA, 2 mM MgCl2, 0.2 mM NADP, 1 mg/ml BSA, 1 mM MTT, 0.6 mM PMS, 1 unit/mL phosphoglucose isomerase, 2 units/mL glucose 6-phosphate dehydrogenase, and 0.150 mM substrate (fructose 1,6-bisphosphate). Inhibitor concentrations were varied from 0.01 μM to 10 μM. Reactions were started by the addition of 0.002 units of pure hlFBPase and were monitored for 7 minutes at 590 nm in a Molecular Devices Plate Reader (37° C.).

Human adenosine kinase = target: T2, Human adenosine kinase (Homo sapiens, UniProt P55263); assay: Adenosine kinase selectivity assay; format: biochemical; conditions: for IC50: Table 3 Selectivity, read-out: Adenosine Kinase (inh.); for effect on adenosine kinase: result in words
T2 construct: made in house; host or cells: E. coli
Description: (§1) To determine the selectivity of compounds towards FBPase, effects of FBPase inhibitors on 5 key AMP binding enzymes were measured using the assays described below:
Adenosine Kinase: Human adenosine kinase was purified from an E. coli expression system as described by Spychala et al (Spychala, J., Datta, N. S., Takabayashi, K., Datta, M., Fox, I. H., Gribbin, T., and Mitchell, B. S. (1996) Proc. Natl. Acad. Sci. USA 93, 1232-1237). Activity was measured essentially as described by Yamada et at (Yamada, Y., Goto, H., Ogasawara, N. (1988) Biochim. Biophys. Acta 660, 36-43.) with a few minor modifications. Assay mixtures contained 50 mM TRIS-maleate buffer, pH 7.0, 0.1% BSA, 1 mM ATP 1 mM MgCl2, 1.0 μM [U-^14C] adenosine (400-600 mCi/mmol) and varying duplicate concentrations of inhibitor. ^14C-AMP was separated from unreacted ^14C-adenosine by absorption to anion exchange paper (Whatman) and quantified by scintillation counting.

[1] = target: T3, Adenylate Kinase (rabbit muscle) (Oryctolagus cuniculus, UniProt P00569); assay: Adenylate kinase selectivity assay; format: biochemical; conditions: for IC50: Table 3 Selectivity, read-out: Adenylate Kinase (inh.); for effect on adenylate kinase: result in words
T3 construct: Enzyme (rabbit muscle) was purchase from Sigma; purchased Sigma; host or cells: rabbit muscle
T3 sequence (P00569 1-194): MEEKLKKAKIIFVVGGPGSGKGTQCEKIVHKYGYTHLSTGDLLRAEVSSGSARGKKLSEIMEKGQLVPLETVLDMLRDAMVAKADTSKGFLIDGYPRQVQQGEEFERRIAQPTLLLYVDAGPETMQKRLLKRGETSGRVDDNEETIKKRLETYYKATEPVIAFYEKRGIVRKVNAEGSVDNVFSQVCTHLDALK
Description: as §1
Adenylate Kinase: Enzyme (rabbit muscle) was purchase from Sigma. Activity was measured at 37° C. in reaction mixtures (100 μL) containing 100 mM Hepes, pH 7.4, 45 mM MgCl2, 1 mM EGTA, 100 mM KCl, 2 mg/ml BSA, 1 mM AMP and 2 mM ATP. Reactions were started by addition of 4.4 ng enzyme and terminated after 5 minutes by addition of 17 μL perchloric acid. Precipitated protein was removed by centrifugation and the supernatant neutralized by addition of 33 μL 3 M KOH/3 M KH2CO3. The neutralized solution was clarified by centrifugation and filtration and analyzed for ADP content (enzyme activity) by HPLC using a YMC ODS AQ column (25×4.6 cm). A gradient was run from 0.1 M KH2PO4, pH 6, 8 mM tetrabutyl ammonium hydrogen sulfate to 75% acetonitrile. Absorbance was monitored at 254 nm.

[2] = tested on: streptozotocin-treated Sprague-Dawley rats; assay: Blood glucose lowering in the streptozotocin-treated rat; format: in vivo
Description: Diabetes was induced in male Sprague-Dawley rats (250-300 g) by intraperitoneal injection of 55 mg/kg streptozotocin (Sigma Chemical Co.). Six days later, 24 animals were selected with fed blood glucose values (8 am) between 350 and 600 mg/dL and divided into two statistically equivalent groups. Blood glucose was measured in blood obtained from a tall vein nick by means of a HemoCue Inc. (Mission Viejo, Calif.) glucose analyzer. […] Food was removed from the animals. Blood glucose was measured in each animal four hours after dosing, and a second dose of drug or saline was then administered. Four hours later, a final blood glucose measurement was made.

[3] = Analysis of drug levels and liver accumulation in rats; format: in vivo; conditions: rat, 20 mg/kg intraperitoneally, one hour post injection
Description: Sprague-Dawley rats (250-300 g) were fasted for […] and then dosed intraperitoneally either with saline (n=3) or 20 mgs/kg of FBPase inhibitor (n=4). The vehicle used for drug administration was 10 mM bicarbonate. One hour post injection rats were anesthetized with halothane and a liver biopsy (approx. 1 g) was taken as well as a blood sample (2 ml) from the posterior vena cava. A heparin flushed syringe and needle was used for blood collection. The liver sample was immediately homogenized in ice-cold 10% perchloric acid (3 mL), centrifuged, and the supernatant neutralized with ⅓rd volume of 3 M KOH/3 M KH2CO3. Following centrifugation and filtration, 50 μl of the neutralized extract was ana lyzed for FBPase inhibitor content by HPLC. A reverse phase YMC ODS AQ column ([…]) was used and eluted with a gradient from 10 mM sodium phosphate pH 5.5 to 75% acetonitrile. Absorbance was monitored at 310 nm. […] The methanolic extract was clarified by centrifugation and filtration and then analyzed by HPLC as described above.

T2 sequence (P55263 1-345 isoform P55263-2): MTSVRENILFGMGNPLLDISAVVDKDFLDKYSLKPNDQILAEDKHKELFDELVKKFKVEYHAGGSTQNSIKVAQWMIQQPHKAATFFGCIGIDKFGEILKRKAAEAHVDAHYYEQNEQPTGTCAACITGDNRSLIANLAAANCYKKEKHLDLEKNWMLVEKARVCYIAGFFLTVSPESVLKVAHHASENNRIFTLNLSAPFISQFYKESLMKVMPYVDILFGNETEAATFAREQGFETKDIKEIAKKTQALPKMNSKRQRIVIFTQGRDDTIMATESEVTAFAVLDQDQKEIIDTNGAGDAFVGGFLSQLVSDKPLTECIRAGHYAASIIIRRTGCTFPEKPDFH

Row | SMILES | inhibition of human liver FBPase activity (FIG. 2) (human liver FBPase; result in words) | IC50 (human liver FBPase) [µM] | IC50 (Human adenosine kinase) [µM] | effect on adenosine kinase (Human adenosine kinase) | IC50 [1] [µM] | effect on adenylate kinase [1] | Blood glucose, mg/dl T = 8h ([2]; 100 mg/kg intraperitoneally at 0 and 4 h, food removed, 8 hours after the initial dose) [mg/dL] | Blood glucose, mg/dl T = 0h ([2]; before dosing, streptozotocin-treated rats) [mg/dL] | liver level [3] [nmol/g] | plasma level [3] [µM]
1 | Nc1c(F)ccc2c1nc(-c1ccc(P(=O)(O)O)o1)n2CC1CC1 [Compound 12.61, 4-Amino-5-fluoro-1-cyclopropylmethyl-2-(2-phosphono-5-furanyl)benzimidazole] | inhibit human liver FBPase activity in vitro in a dose dependent manner | 0.055 | > 100 | essentially without effect | > 500 | essentially without effect | – | – | – | –
2 | CCc1cc(F)c(N)c2nc(-c3ccc(P(=O)(O)O)o3)n(CC(C)C)c12 [Compound 12.64] | – | – | – | – | – | – | 271 ± 29 | 488 ± 16 | 90 | 85
3 | CCn1c(-c2ccc(P(=O)(O)O)o2)nc2c(N)cccc21 [Compound 12.1, 4-Amino-1-ethyl-2-[2-(5-phosphono)furanyl]benzimidazole] | – | 2 | > 10 | essentially inactive | > 500 | essentially inactive | – | – | – | –
